How the values were obtained:
[1] = biological target: ROCK-II (h, amino acids 11-552) (Homo sapiens (Human), UniProt O75116); assay: ROCK-II (h) inhibition assay; assay type: biochemical; details: read-out: ROCK2 IC50
Procedure: ROCK-II (h) Inhibition Assay:
In a final reaction volume of 25 μL, ROCK-II (h, amino acids 11-552) (5-10 mU) was incubated with 50 mM Tris pH 7.5, 0.1 mM EGTA, 30 [μM […], 10 mM magnesium acetate and γ-^32P-ATP] (specific activity approx. 500 cpm/pmol, concentration as required). The reaction was initiated by the addition of the MgATP mix. After incubation for 40 minutes at room temperature, the reaction was stopped by the addition of 5 μL of a 3% phosphoric acid solution. 10 μL of the reaction was then spotted onto a P30 filter-mat and washed three times for 5 minutes in 75 mM phosphoric acid and once in methanol prior to drying and scintillation counting.

[2] = biological target: ROCK-I (h, amino acids 17-535) (Homo sapiens (Human), UniProt Q13464); assay: ROCK-I (h) inhibition assay; assay type: biochemical; details: read-out: ROCK1 IC50
Procedure: ROCK-I (h) Inhibition Assay:
In a final reaction volume of 25 μL, ROCK-I (h, amino acids 17-535) (5-10 mU) was incubated with 8 mM MOPS pH 7.0, 0.2 mM EDTA, 30 μM […], 10 mM magnesium acetate and [γ-^32P-ATP] (specific activity approx. 500 cpm/pmol, concentration as required). The reaction was initiated by the addition of the MgATP mix. After incubation for 40 minutes at room temperature, the reaction was stopped by the addition of 5 μL of a 3% phosphoric acid solution. 10 μL of the reaction was then spotted onto a P30 filtermat and washed three times for 5 minutes in 75 mM phosphoric acid and once in methanol prior to drying and scintillation counting.

ROCK-I (h, amino acids 17-535), sequence (Q13464 17-535): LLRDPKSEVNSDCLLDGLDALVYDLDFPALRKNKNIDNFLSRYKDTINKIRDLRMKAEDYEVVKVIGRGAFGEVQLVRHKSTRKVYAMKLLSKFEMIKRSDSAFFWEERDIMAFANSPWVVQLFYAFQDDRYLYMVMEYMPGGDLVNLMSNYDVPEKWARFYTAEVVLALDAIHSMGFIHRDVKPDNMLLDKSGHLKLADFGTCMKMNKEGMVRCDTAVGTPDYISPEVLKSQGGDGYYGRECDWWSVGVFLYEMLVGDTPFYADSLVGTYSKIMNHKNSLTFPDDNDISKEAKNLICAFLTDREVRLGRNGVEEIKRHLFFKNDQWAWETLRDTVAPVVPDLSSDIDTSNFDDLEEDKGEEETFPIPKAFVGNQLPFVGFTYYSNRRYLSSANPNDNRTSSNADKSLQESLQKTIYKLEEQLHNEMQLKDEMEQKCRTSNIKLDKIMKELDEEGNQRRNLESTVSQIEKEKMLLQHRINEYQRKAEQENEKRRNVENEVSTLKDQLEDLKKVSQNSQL
ROCK-II (h, amino acids 11-552), sequence (O75116 11-552): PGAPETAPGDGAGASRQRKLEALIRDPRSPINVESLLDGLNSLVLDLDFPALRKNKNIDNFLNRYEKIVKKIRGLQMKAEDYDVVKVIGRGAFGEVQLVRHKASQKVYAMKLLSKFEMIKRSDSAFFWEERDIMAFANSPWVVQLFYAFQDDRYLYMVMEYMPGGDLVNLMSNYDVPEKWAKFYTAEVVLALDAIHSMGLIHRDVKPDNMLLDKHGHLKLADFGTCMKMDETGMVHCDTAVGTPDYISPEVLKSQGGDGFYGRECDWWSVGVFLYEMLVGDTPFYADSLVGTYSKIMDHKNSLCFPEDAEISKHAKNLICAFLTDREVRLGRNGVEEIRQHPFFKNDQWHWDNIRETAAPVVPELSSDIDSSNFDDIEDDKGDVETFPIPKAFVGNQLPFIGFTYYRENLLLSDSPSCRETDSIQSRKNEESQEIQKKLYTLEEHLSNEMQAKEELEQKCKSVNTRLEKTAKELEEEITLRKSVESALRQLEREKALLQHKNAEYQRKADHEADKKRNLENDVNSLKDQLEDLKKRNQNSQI

SMILES	IC50 [1]	IC50 [2]
CN1C(=O)[C@@H](Cc2ccc(-c3ccnc(N)c3)cc2)NC(=O)c2cc(Cl)ccc21 [Compound 2, (R)-3-(4-(2-aminopyridin-4-yl)benzyl)-7-chloro-1-methyl-3,4-dihydro-1H-benzo[e][1,4]diazepine-2,5-dione]	7100 nM	> 10000 nM
COc1ccc2c(c1)C(=O)N[C@@H](Cc1ccc(-c3ccnc(N)c3)cc1)C(=O)N2C [Compound 3, (S)-3-(4-(2-aminopyridin-4-yl)benzyl)-7-methoxy-1-methyl-3,4-dihydro-1H-benzo[e][1,4]diazepine-2,5-dione]	2400 nM	> 10000 nM
CN1C(=O)[C@@H](Cc2ccc(-c3cn[nH]c3)cc2)NC(=O)c2cc(Cl)ccc21 [Compound 1, (R)-3-(4-(1H-pyrazol-4-yl)benzyl)-7-chloro-1-methyl-3,4-dihydro-1H-benzo[e][1,4]diazepine-2,5-dione]	1000 nM	> 30000 nM

More lines, now with the values ahead:

IC50 [1]	IC50 [2]	SMILES
200 nM	2800 nM	COc1ccc2c(c1)C(=O)N[C@@H](Cc1ccc(-c3ccnc4[nH]ccc34)cc1)C(=O)N2C [Compound 5, (S)-3-(4-(1H-pyrrolo[2,3-b]pyridin-4-yl)benzyl)-7-methoxy-1-methyl-3,4-dihydro-1H-benzo[e][1,4]diazepine-2,5-dione]
250 nM	5100 nM	CN1C(=O)[C@H](Cc2ccc(-c3ccnc4[nH]ccc34)cc2)NC(=O)c2cc(Cl)ccc21 [Compound 4, (S)-3-(4-(1H-pyrrolo[2,3-b]pyridin-4-yl)benzyl)-7-chloro-1-methyl-3,4-dihydro-1H-benzo[e][1,4]diazepine-2,5-dione]
